{"source": "patent US20090317372A1", "about": "“SMALL MOLECULES FOR THE REDUCTION OF HIGH BLOOD GLUCOSE LEVEL” (priority 2008, published 2009)", "format_in_all_cases": "in vivo", "key": {"ob/ob mice [1]": {"tested_on": "ob/ob mice", "test": "Glucose tolerance test with ob/ob mice", "experimental": "In this experiment, 43 days old ob/ob mice weighing 40.3±1.8-g on average were used. One group of mice (5 animals) remained untreated for the subsequent 14 days. Two other groups of mice (each including 5 animals) were treated on each day for 13 days with 4.5-mg/kg dose of CCcompound1. On the 14th day the first group received only i.p. injection of glucose (3-g/kg) (first column in TABLE 13); the second group first received s.c. injection of CCcompound1, followed six hours later by i.p. injection of glucose (3-g/kg) (second column in TABLE 13); the third group first received s.c. injection of CCcompound1, followed 45 min later by i.p. injection of glucose (3-g/kg) (third column in TABLE 13). In each case, blood was first drawn 1-5 min prior to the administration of glucose, followed by drawing blood samples at 30 min, 60 min, 120 min and 180 min. The results shown in TABLE 13 indicate that CCcompound1 can effectively lower blood glucose level even after administration of a large amount of glucose. […] This probably means that the effect of CCcompound1 on blood glucose level requires its physical presence in the circulation and is not mediated by a secondary mechanism."}, "C57/BL/6 mice [2]": {"tested_on": "C57/BL/6 mice", "test": "Glucose tolerance test with normal mice, dose and time dependence of CCcompound1", "experimental": "Female C57/BL/6 mice weighing 22-23-g and fasted for 14 hours prior to i.p. glucose administration (3-g/kg) were used. None of the animals received any food during the experiment other than glucose. The animals received i.p. injections of 2.0 or 4.5-mg/kg of CCcompound1 either 30 min, 60 min or 120 min prior to glucose administration. Blood samples were taken and glucose concentrations were immediately measured as described earlier. Each group included six animals. The data are the mean±std. dev. of 6 determinations, i.e. one determination with each of the six animals. “-min” indicates the length of period in minutes elapsed between the administration of CCcompound1 (first) and glucose (second)."}, "C57/BL/6 mice [3]": {"tested_on": "C57/BL/6 mice", "test": "Blood glucose level in normal (non-diabetic) mice without glucose challenge", "details": "food deprived 2 h", "experimental": "Female C57/BL/6 mice (25-27-g body weight) were deprived of food for 2 hours and then injected with 4.5-mg/kg of CCcompound1. Blood samples for glucose measurements were taken from the eyes (canthus) just before the administration of CCcompound1 (0 min) as well as 30 min and 120 min after the administration of CCcompound1. Glucose concentrations in whole blood samples were immediately measured with the Fast Glucose C test. The data are the mean±std.dev. of 5 determinations, i.e. one determination with each of the 5 animals. […] In this experiment, the period of food deprivation was short enough that compensatory mechanisms could maintain the blood glucose level near the normal 5-mM value. The condition employed also reflects the human eating habits, because normally there is at least a 2 hours interval between meals and snacks. Thus, with normal subjects under normal conditions, CC compounds are not expected to appreciably change the physiological level of blood glucose level that is about 5-mM on average."}, "ob/ob mice [4]": {"tested_on": "ob/ob mice", "test": "Blood glucose level of normally fed ob/ob obese diabetic mice, daily treatment", "details": "4.5-mg/kg s.c. once daily", "text": "Adult female leptin-deficient ob/ob obese diabetic inbred specified pathogen free (SPF) hygienic category mice from Charles River VRF1 were used for these experiments. The mice weighed 32-36-g at arrival. The ob/ob obese mouse is an extensively used animal model for the study of non-insulin-dependent-diabetes mellitus (NIDDM). The mutation was propagated in the C57BL/6J (BL/6) inbred strain. Homozygous obese (ob/ob) animals developed hyperglycemia due to insulin resistance, hyperinsulinemia (to compensate for reduced insulin action), and obesity. In these animals gluconeogenesis is enhanced despite their hyperinsulinemic state. The animals were kept in macrolon cages at 22-24° C. and 50-60% humidity, with lighting regimen of 12/12 h light dark. They had free access to tap water and were fed a sterilized standard diet (Charles River VRF1, autoclavable). The animals were cared for according to the “Guiding Principles for the Care and Use for Animals” based upon the Helsinki declaration. The ob/ob mice gained weight rapidly and developed a marked obesity by 5-6 weeks of age. […] When arrived they were 5 weeks old (when the experiment was performed with CCcompound1) or 4.5 weeks old (when the experiment was performed with CCcompound3 and CCcompound19). The treatments started 8 days later in the experiment performed with CCcompound1 and 10 days later in the experiment performed with CCcompound3 and CCcompound19. Experimental groups selected from ob/ob mice were injected subcutaneously (s.c.) at regular intervals once daily for 14 days with CCcompound1 or an analog (CCcompound3 or CCcompound19) each at the dose of 4.5-mg per kg. Control groups were also selected from ob/ob mice that remained untreated during the entire length of the experiment. In the first experiment, for which the data is presented in TABLE 11, blood samples were taken either 45 min or 6 hours after treatments with CCcompound1. In the second experiment, for which the data is presented in TABLE 12, blood samples were taken 45 min after treatments with the analogs of CCcompound1. Blood glucose was determined with the Fast Glucose C test. Both the untreated and CC compound-treated groups included 5 animals. The data are the mean±std. dev."}}}
{"compound": "Cc1c(OCC(O)C[N+](C)(C)C)cc2c(=O)c3ccccc3sc2c1C.[Cl-]", "note": "(stereo not shown) [CCcompound 1, [3-(3,4-Dimethyl-9-oxo-9H-thioxanthen-2-yloxy)-2-hydroxypropyl]trimethyl-ammonium chloride]", "values": [{"measurement": "Blood glucose", "setting": "ob/ob mice [1]; 4.5-mg/kg daily 13 days, day 14 s.c. 45 min prior to glucose 3-g/kg i.p., 0 min", "result": "10.7 ± 0.2", "unit": "mM"}, {"measurement": "Blood glucose", "setting": "ob/ob mice [1]; 4.5-mg/kg daily 13 days, day 14 s.c. 6 hours prior to glucose 3-g/kg i.p., 0 min", "result": "17.8 ± 0.3", "unit": "mM"}, {"measurement": "Blood glucose", "setting": "ob/ob mice [1]; s.c. 45 min prior to glucose, 30 min", "result": "11.9 ± 0.4", "unit": "mM"}, {"measurement": "Blood glucose", "setting": "ob/ob mice [1]; s.c. 45 min prior to glucose, 60 min", "result": "11.4 ± 0.3", "unit": "mM"}, {"measurement": "Blood glucose", "setting": "ob/ob mice [1]; s.c. 45 min prior to glucose, 120 min", "result": "11.0 ± 0.3", "unit": "mM"}, {"measurement": "Blood glucose", "setting": "ob/ob mice [1]; s.c. 45 min prior to glucose, 180 min", "result": "10.9 ± 0.3", "unit": "mM"}, {"measurement": "Blood glucose", "setting": "ob/ob mice [1]; s.c. 6 hours prior to glucose, 30 min", "result": "20.7 ± 0.2", "unit": "mM"}, {"measurement": "Blood glucose", "setting": "ob/ob mice [1]; s.c. 6 hours prior to glucose, 60 min", "result": "20.2 ± 0.2", "unit": "mM"}, {"measurement": "Blood glucose", "setting": "ob/ob mice [1]; s.c. 6 hours prior to glucose, 120 min", "result": "19.6 ± 0.2", "unit": "mM"}, {"measurement": "Blood glucose", "setting": "ob/ob mice [1]; s.c. 6 hours prior to glucose, 180 min", "result": "18.9 ± 0.3", "unit": "mM"}, {"measurement": "Blood glucose", "setting": "C57/BL/6 mice [2]; 2 mg/kg i.p. −30 min, 0 min", "result": "1.30 ± 0.20", "unit": "mM"}, {"measurement": "Blood glucose", "setting": "C57/BL/6 mice [2]; 2 mg/kg i.p. −30 min, 30 min", "result": "5.40 ± 0.45", "unit": "mM"}, {"measurement": "Blood glucose", "setting": "C57/BL/6 mice [2]; 2 mg/kg i.p. −30 min, 60 min", "result": "4.15 ± 0.45", "unit": "mM"}, {"measurement": "Blood glucose", "setting": "C57/BL/6 mice [2]; 2 mg/kg i.p. −30 min, 120 min", "result": "3.50 ± 0.30", "unit": "mM"}, {"measurement": "Blood glucose", "setting": "C57/BL/6 mice [2]; 2 mg/kg i.p. −30 min, 180 min", "result": "2.80 ± 0.30", "unit": "mM"}, {"measurement": "Blood glucose", "setting": "C57/BL/6 mice [2]; 2 mg/kg i.p. −60 min, 0 min", "result": "1.30 ± 0.30", "unit": "mM"}, {"measurement": "Blood glucose", "setting": "C57/BL/6 mice [2]; 2 mg/kg i.p. −60 min, 30 min", "result": "5.70 ± 0.35", "unit": "mM"}, {"measurement": "Blood glucose", "setting": "C57/BL/6 mice [2]; 2 mg/kg i.p. −60 min, 60 min", "result": "4.30 ± 0.30", "unit": "mM"}, {"measurement": "Blood glucose", "setting": "C57/BL/6 mice [2]; 2 mg/kg i.p. −60 min, 120 min", "result": "3.70 ± 0.30", "unit": "mM"}, {"measurement": "Blood glucose", "setting": "C57/BL/6 mice [2]; 2 mg/kg i.p. −60 min, 180 min", "result": "3.25 ± 0.35", "unit": "mM"}, {"measurement": "Blood glucose", "setting": "C57/BL/6 mice [2]; 4.5 mg/kg i.p. −30 min, 0 min", "result": "1.50 ± 0.25", "unit": "mM"}, {"measurement": "Blood glucose", "setting": "C57/BL/6 mice [2]; 4.5 mg/kg i.p. −30 min, 30 min", "result": "5.05 ± 0.20", "unit": "mM"}, {"measurement": "Blood glucose", "setting": "C57/BL/6 mice [2]; 4.5 mg/kg i.p. −30 min, 60 min", "result": "3.55 ± 0.25", "unit": "mM"}, {"measurement": "Blood glucose", "setting": "C57/BL/6 mice [2]; 4.5 mg/kg i.p. −30 min, 120 min", "result": "2.95 ± 0.25", "unit": "mM"}, {"measurement": "Blood glucose", "setting": "C57/BL/6 mice [2]; 4.5 mg/kg i.p. −30 min, 180 min", "result": "1.95 ± 0.30", "unit": "mM"}, {"measurement": "Blood glucose", "setting": "C57/BL/6 mice [2]; 4.5 mg/kg i.p. −60 min, 0 min", "result": "1.40 ± 0.25", "unit": "mM"}, {"measurement": "Blood glucose", "setting": "C57/BL/6 mice [2]; 4.5 mg/kg i.p. −60 min, 30 min", "result": "5.25 ± 0.30", "unit": "mM"}, {"measurement": "Blood glucose", "setting": "C57/BL/6 mice [2]; 4.5 mg/kg i.p. −60 min, 60 min", "result": "3.90 ± 0.20", "unit": "mM"}, {"measurement": "Blood glucose", "setting": "C57/BL/6 mice [2]; 4.5 mg/kg i.p. −60 min, 120 min", "result": "3.20 ± 0.15", "unit": "mM"}, {"measurement": "Blood glucose", "setting": "C57/BL/6 mice [2]; 4.5 mg/kg i.p. −60 min, 180 min", "result": "2.85 ± 0.15", "unit": "mM"}, {"measurement": "Blood glucose", "setting": "C57/BL/6 mice [2]; 4.5 mg/kg i.p. −120 min, 0 min", "result": "1.35 ± 0.15", "unit": "mM"}, {"measurement": "Blood glucose", "setting": "C57/BL/6 mice [2]; 4.5 mg/kg i.p. −120 min, 30 min", "result": "7.80 ± 0.40", "unit": "mM"}, {"measurement": "Blood glucose", "setting": "C57/BL/6 mice [2]; 4.5 mg/kg i.p. −120 min, 60 min", "result": "5.90 ± 0.45", "unit": "mM"}, {"measurement": "Blood glucose", "setting": "C57/BL/6 mice [2]; 4.5 mg/kg i.p. −120 min, 120 min", "result": "4.30 ± 0.40", "unit": "mM"}, {"measurement": "Blood glucose", "setting": "C57/BL/6 mice [2]; 4.5 mg/kg i.p. −120 min, 180 min", "result": "3.00 ± 0.20", "unit": "mM"}, {"measurement": "Glucose lowering effect", "setting": "C57/BL/6 mice [2]; administered 120 min prior to glucose", "result": "practically ineffective"}, {"measurement": "Blood glucose", "setting": "C57/BL/6 mice [3]; 0 min, just before 4.5-mg/kg", "result": "5.1 ± 0.5", "unit": "mM"}, {"measurement": "Blood glucose", "setting": "C57/BL/6 mice [3]; 30 min after 4.5-mg/kg", "result": "4.9 ± 0.4", "unit": "mM"}, {"measurement": "Blood glucose", "setting": "C57/BL/6 mice [3]; 120 min after 4.5-mg/kg", "result": "4.9 ± 0.6", "unit": "mM"}, {"measurement": "Glucose level", "setting": "ob/ob mice [4]; 45 min after treatment, day 1", "result": "6.2 ± 0.4", "unit": "mM"}, {"measurement": "Glucose level", "setting": "ob/ob mice [4]; 45 min after treatment, day 4", "result": "7.4 ± 0.3", "unit": "mM"}, {"measurement": "Glucose level", "setting": "ob/ob mice [4]; 45 min after treatment, day 7", "result": "8.4 ± 0.2", "unit": "mM"}, {"measurement": "Glucose level", "setting": "ob/ob mice [4]; 45 min after treatment, day 11", "result": "9.2 ± 0.3", "unit": "mM"}, {"measurement": "Glucose level", "setting": "ob/ob mice [4]; 45 min after treatment, day 14", "result": "10.2 ± 0.3", "unit": "mM"}, {"measurement": "Glucose level", "setting": "ob/ob mice [4]; 6 hours after treatment, day 4", "result": "11.3 ± 0.7", "unit": "mM"}, {"measurement": "Glucose level", "setting": "ob/ob mice [4]; 6 hours after treatment, day 7", "result": "13.8 ± 0.4", "unit": "mM"}, {"measurement": "Glucose level", "setting": "ob/ob mice [4]; 6 hours after treatment, day 11", "result": "15.7 ± 0.4", "unit": "mM"}, {"measurement": "Glucose level", "setting": "ob/ob mice [4]; 6 hours after treatment, day 14", "result": "17.5 ± 0.4", "unit": "mM"}, {"measurement": "Glucose level", "setting": "ob/ob mice [4]; blood 6 hours after treatment, day 1", "result": "9.3 ± 0.4", "unit": "mM"}]}
